# Results published in ChEMBL document CHEMBL1201862, “PubChem BioAssay data set” (2004).
# The source made the active and inactive calls.
# How the values were obtained:
# Cytochrome P450 3A4 = Cytochrome P450 3A4 (Homo sapiens, UniProt P08684);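 also: CYP3A4 tested as one member of a cytochrome P450 panel screen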
# Cytochrome P450 2C9 = Cytochrome P450 2C9 (Homo sapiens, UniProt P11712)
# Cytochrome P450 1A2 = molecular target: T1, Cytochrome P450 1A2 (Homo sapiens, UniProt P05177);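 also: PubChem cytochrome P450 panel assay, CYP1A2 panel member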
# T1 sequence (P05177 whole entry): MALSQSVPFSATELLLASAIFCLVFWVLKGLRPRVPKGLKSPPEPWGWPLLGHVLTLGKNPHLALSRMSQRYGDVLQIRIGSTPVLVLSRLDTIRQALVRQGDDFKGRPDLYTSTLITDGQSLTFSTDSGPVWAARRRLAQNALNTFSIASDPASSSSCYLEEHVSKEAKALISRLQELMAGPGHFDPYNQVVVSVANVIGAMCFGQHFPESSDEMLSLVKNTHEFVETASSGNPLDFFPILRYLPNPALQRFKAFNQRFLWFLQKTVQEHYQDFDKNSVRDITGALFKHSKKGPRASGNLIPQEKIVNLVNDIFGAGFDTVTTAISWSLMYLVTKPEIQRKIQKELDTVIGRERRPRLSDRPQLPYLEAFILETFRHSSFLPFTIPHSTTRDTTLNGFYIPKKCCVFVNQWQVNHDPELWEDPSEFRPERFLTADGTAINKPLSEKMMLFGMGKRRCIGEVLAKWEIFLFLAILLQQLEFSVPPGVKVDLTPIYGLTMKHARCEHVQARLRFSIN
# [1] = C. albicans growth with fluconazole, confirmation, fluorescence, retest (AID 2467); assay type: functional, cell-based
# [2] = NIH-3T3 fibroblast cytotoxicity, dose response, cytotoxicity control, cell-based, fluorescence, Alamar Blue, secondary assay (AID 2327); assay type: functional;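 also: NIH-3T3 mouse fibroblasts cultured with fluconazole at 8 µg/mL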
# [3] = molecular target: T2, Zinc finger protein mex-5 (Caenorhabditis elegans, UniProt Q9XUB2); experiment: MEX-5/TCR-2 RNA interaction inhibitors, dose response, biochemical, C. elegans, fluorescence polarization (AID 1960)
# T2 sequence (Q9XUB2 whole entry): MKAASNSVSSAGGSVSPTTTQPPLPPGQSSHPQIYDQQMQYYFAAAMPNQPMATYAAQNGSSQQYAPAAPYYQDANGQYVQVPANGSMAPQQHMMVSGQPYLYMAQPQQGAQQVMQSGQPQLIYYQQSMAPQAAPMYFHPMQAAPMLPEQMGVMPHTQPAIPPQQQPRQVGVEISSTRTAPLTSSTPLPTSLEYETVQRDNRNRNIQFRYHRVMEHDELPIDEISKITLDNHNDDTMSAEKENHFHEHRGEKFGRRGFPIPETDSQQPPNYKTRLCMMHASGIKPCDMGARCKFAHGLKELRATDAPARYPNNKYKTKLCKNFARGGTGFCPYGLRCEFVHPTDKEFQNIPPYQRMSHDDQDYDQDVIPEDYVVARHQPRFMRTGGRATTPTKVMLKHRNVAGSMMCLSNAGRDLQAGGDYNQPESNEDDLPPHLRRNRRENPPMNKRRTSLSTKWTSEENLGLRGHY
# [4] = molecular target: T3, Corticotropin-releasing factor receptor 2/Corticotropin-releasing factor-binding protein (Homo sapiens, UniProt P24387+Q13324); experiment: activators of CRF receptor 2 with binding protein – uHTS hits, confirmation (AID 602473); assay type: functional; settings: read-out: EC50_Mean
# T3 sequence (Q13324 whole entry): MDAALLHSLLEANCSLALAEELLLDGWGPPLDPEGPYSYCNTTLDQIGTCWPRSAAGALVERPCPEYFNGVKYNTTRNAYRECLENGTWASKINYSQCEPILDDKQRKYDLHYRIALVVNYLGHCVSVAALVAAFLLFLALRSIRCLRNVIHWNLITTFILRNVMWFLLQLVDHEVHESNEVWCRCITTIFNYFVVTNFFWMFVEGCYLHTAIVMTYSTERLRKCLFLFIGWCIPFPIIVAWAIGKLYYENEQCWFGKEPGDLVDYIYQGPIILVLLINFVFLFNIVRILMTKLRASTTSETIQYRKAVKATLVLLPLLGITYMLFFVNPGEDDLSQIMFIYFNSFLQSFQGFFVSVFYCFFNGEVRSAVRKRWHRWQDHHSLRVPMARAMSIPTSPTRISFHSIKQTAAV
# T3 sequence (P24387 whole entry): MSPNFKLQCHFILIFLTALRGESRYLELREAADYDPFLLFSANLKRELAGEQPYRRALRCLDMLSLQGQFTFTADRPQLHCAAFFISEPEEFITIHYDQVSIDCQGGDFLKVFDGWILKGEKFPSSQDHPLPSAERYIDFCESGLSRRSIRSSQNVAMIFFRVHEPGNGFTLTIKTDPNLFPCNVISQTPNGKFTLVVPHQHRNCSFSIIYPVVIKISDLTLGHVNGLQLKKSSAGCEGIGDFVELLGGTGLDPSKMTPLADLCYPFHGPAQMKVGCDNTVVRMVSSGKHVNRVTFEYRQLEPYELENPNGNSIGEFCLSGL
# [5] = molecular target: T4, RNA-binding protein pos-1 (Caenorhabditis elegans, UniProt G5EF15); experiment: inhibitors of POS-1/mex-3 RNA binding, dose response, biochemical, fluorescence polarization (AID 1964);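 also: purified POS-1 fused to maltose binding protein made in E. coli; potency of compounds blocking POS-1 binding to fluorescent RNA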
# T4 sequence (G5EF15 whole entry): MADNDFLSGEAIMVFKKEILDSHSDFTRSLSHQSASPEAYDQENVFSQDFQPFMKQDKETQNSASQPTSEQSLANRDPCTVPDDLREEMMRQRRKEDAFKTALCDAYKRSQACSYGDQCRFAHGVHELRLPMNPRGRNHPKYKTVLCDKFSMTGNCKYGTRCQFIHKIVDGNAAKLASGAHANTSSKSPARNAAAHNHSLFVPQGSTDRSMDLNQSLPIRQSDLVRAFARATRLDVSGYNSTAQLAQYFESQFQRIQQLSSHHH
# Cytochrome P450 2C19 = Cytochrome P450 2C19 (Homo sapiens, UniProt P33261); experiment: Cytochrome panel assay with activity outcomes. Panel member name: p450-cyp2c19 Compounds with AC50 equal or less than 10 uM are considered active; assay type: functional
# [6] = system: Streptococcus sp. 'group A'; experiment: growth inhibition of control SK(-) GAS strain, dose response, counter-screen for streptokinase expression inhibitor project, luminescence, kanamycin, BacTiterGlo, confirmation (AID 1900); assay type: functional, organism-based
# Streptococcus = experiment: Group A Streptococcus viability loss, dose response, counter-screen for streptokinase expression inhibitor project, luminescence, BacTiterGlo (AID 1915); assay type: functional, organism-based;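 also: potency for reduction of bacterial viability or growth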
# Streptokinase A = molecular target: T5, Streptokinase A (Streptococcus pyogenes serotype M1, UniProt P10520); experiment: S. pyogenes streptokinase expression inhibitors, potency, dose response, plasminogen activation absorbance, OD405 (AID 1914); assay type: functional, Streptococcus pyogenes M1 GAS;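 also: secreted streptokinase activity via plasminogen activation per viability signal from cell pellet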
# T5 sequence (P10520 whole entry): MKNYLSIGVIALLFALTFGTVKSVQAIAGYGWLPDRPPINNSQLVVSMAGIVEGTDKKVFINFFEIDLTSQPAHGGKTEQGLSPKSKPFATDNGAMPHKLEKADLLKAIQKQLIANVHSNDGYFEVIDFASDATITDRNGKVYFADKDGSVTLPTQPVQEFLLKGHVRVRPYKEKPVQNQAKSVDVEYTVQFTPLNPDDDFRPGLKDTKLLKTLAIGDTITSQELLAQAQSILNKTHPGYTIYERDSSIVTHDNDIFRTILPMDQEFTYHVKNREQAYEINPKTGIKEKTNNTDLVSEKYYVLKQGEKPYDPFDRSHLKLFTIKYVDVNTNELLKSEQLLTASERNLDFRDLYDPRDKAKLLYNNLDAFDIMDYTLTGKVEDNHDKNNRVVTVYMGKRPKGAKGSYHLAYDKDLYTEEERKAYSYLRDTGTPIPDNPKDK
# Cytochrome P450 2C19, sequence (P33261 whole entry): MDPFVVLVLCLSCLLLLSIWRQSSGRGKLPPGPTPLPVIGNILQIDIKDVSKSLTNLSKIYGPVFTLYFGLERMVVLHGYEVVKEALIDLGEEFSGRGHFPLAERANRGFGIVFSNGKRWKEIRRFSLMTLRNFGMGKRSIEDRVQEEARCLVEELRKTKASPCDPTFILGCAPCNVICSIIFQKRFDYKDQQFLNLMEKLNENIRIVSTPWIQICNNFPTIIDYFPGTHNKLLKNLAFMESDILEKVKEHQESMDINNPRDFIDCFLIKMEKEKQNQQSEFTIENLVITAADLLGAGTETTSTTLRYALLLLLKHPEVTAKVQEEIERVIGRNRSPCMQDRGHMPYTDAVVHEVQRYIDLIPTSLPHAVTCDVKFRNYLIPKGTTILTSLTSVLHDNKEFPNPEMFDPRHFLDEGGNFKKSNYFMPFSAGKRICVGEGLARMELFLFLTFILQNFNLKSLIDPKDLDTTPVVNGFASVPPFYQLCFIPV
# Cytochrome P450 3A4, sequence (P08684 whole entry): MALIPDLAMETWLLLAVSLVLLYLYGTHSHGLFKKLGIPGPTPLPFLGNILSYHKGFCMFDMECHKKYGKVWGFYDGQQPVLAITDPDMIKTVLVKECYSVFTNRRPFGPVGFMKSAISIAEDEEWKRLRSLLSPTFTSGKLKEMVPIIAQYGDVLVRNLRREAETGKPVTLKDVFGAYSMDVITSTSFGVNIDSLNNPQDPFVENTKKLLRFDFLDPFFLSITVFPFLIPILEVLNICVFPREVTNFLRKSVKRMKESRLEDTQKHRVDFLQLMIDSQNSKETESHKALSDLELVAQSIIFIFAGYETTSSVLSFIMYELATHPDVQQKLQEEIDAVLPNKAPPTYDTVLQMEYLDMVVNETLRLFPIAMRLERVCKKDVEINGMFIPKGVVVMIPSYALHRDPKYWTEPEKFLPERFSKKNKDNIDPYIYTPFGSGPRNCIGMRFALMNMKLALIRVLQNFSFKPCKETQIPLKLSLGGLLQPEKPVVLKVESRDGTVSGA
# Cytochrome P450 2C9, sequence (P11712 whole entry): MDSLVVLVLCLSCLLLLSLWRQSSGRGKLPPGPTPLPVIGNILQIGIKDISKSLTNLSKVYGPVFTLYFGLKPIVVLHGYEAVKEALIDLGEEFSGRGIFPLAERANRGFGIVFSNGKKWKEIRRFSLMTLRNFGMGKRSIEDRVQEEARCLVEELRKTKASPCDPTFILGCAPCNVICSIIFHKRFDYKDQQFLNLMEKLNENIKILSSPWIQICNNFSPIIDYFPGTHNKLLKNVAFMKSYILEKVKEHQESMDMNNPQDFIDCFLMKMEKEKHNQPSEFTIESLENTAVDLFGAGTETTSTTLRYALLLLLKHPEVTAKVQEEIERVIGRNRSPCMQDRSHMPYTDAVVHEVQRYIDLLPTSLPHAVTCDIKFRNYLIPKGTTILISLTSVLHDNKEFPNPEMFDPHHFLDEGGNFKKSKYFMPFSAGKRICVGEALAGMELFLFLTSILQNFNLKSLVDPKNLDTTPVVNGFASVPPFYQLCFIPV
smiles,measurement,setting,value
Nc1nc(SCc2ccccc2)c2ncn(Cc3ccccc3)c2n1,AC50,Cytochrome P450 3A4,3.98 µM (inconclusive)
same,AC50,Cytochrome P450 2C9,3.16 µM (inconclusive)
same,AC50,Cytochrome P450 1A2,0.251 µM (inconclusive)
CC(C)c1nc(N2CCN(C(=O)c3ccco3)CC2)c2c3c(sc2n1)CCCC3,EC50,[1],> 38 µM (not active)
same,EC50,[2],> 150 µM (inactive)
COc1cccc(C2C(C(=O)c3ccc(C)cc3)=C(O)C(=O)N2Cc2ccco2)c1 (centres undefined),EC50,[1],3.1 µM (active)
same,EC50,[2],> 160 µM (inconclusive)
COc1ccccc1NC(=O)c1sc2nc(Cc3ccccc3)cc(C(F)(F)F)c2c1N,EC50,[3],16.2 µM (active)
same,EC50,[4],6.15 µM (active)
same,EC50,[5],9.55 µM (inconclusive)
COc1cc(-c2nnc(COC(=O)c3c4c(nc5ccccc35)CCCC4)o2)cc(OC)c1OC,AC50,Cytochrome P450 1A2,14.1 µM (inconclusive)
N#Cc1c(NC(=O)CCC(=O)O)ccc2ccccc12,AC50,Cytochrome P450 2C19,inconclusive
Cc1cc(C(=O)CSC(=S)SC(C)(C)C)ccc1Cl,AC50,Cytochrome P450 3A4,3.16 µM (inconclusive)
same,AC50,Cytochrome P450 2C9,5.01 µM (inconclusive)
Cc1ccc2c[nH]nc2c1NC(=S)NC(=O)c1ccccc1,AC50,Cytochrome P450 2C19; read-out: AC50,11.2 µM (inconclusive)
CC(=O)N1CCC2(CC1)CN(C(=O)Nc1cccc(C#N)c1)C2,AC50,Cytochrome P450 1A2,12.6 µM (inconclusive)
CN1CCc2nc(N)nc(-c3nc(N)nc4c3CN(C)CC4)c2C1,AC50,Cytochrome P450 2C19,inconclusive
CC(C)(C)NC(=O)NC(=O)CN1CCCc2ccccc21,EC50,[1],> 38 µM (not active)
same,EC50,[2],> 150 µM (inactive)
CCC[C@@H]1C[C@@]1(CCC)C(NC(=O)c1cccs1)c1ccc(Cl)cc1 (some centres undefined),AC50,Cytochrome P450 2C9,5.01 µM (inconclusive)
same,AC50,Cytochrome P450 1A2,10 µM (inconclusive)
COc1ccc(CNC(=O)CN(CC2CCCO2)C(=O)CNS(=O)(=O)c2ccccc2)cc1 (centres undefined),AC50,Cytochrome P450 3A4,3.98 µM (inconclusive)
same,AC50,Cytochrome P450 2C9,22.4 µM (inconclusive)
CCOc1cccc(CNCCNC(=O)c2nonc2N)c1,AC50,Cytochrome P450 3A4,5.01 µM (inconclusive)
same,AC50,Cytochrome P450 1A2,39.8 µM (inconclusive)
O=c1cnc2cnc(Oc3ccccc3)nc2n1C1CC1,AC50,Cytochrome P450 2C19; read-out: AC50,39.8 µM (inconclusive)
CCOC(=O)C1=C(N)Oc2ccc(Br)cc2[C@@H]1[C@@H](C#N)C(=O)OCC,AC50,Cytochrome P450 2C19; read-out: AC50,25.1 µM (inconclusive)
Cc1ccccc1-c1cncnc1N1CCN(C)CC1,AC50,Cytochrome P450 1A2,15.8 µM (inconclusive)
same,AC50,Cytochrome P450 2C19; read-out: AC50,39.8 µM (inconclusive)
Cn1cnc([N+](=O)[O-])c1SCC(=O)O,AC50,Cytochrome P450 2C19,inconclusive
COc1ccc(C2C(C#N)=C(N)OC3=C2C(=O)CC(C)(C)C3)cc1OC (centres undefined),EC50,[3],> 300 µM (not active)
same,EC50,[5],> 300 µM (not active)
CC(=O)Nc1ccc(N/C=C/C(=O)c2ccc(C)o2)cc1,EC50,[3],> 300 µM (not active)
same,EC50,[5],> 300 µM (not active)
Cc1ccccc1OCC(=O)Nc1ccc2c(c1)C(=O)c1ccccc1C2=O,EC50,[3],> 300 µM (not active)
same,EC50,[5],36.1 µM (active)
CC(C)(C)COS(=O)OCC(C)(C)C,AC50,Cytochrome P450 2C19,inconclusive
COc1cccc(C(C(=O)NC2CCCC2)N(C(=O)c2ccco2)c2ccc(-n3cnnn3)c(C)c2)c1OC (centres undefined),EC50,[1],> 38 µM (not active)
same,EC50,[2],> 150 µM (inconclusive)
N#CCCn1c(=O)c(-c2cc(F)cc(F)c2)nc2cnc(Nc3ccccc3)nc21,AC50,Cytochrome P450 1A2,3.16 µM (inconclusive)
N#Cc1c2c(c(-n3cnc4ccccc43)n3c1nc1ccccc13)CCC2,AC50,Cytochrome P450 3A4,3.16 µM (inconclusive)
same,AC50,Cytochrome P450 2C9,10 µM (inconclusive)
same,AC50,Cytochrome P450 1A2,25.1 µM (inconclusive)
CCCSc1cc(N2CCCC2)nc(-c2ccccc2)n1,EC50,[6],35 µM (active)
same,EC50,Streptococcus,> 150 µM (not active)
same,AC50,Cytochrome P450 2C9,2 µM (inconclusive)
same,AC50,Cytochrome P450 2C19; read-out: AC50,39.8 µM (inconclusive)
same,EC50,Streptokinase A,> 150 µM (not active)
O=C1CC(N2CCN(C(c3ccccc3)c3ccccc3)CC2)C(=O)N1Cc1ccc(N2CCCC2=O)cc1 (centres undefined),AC50,Cytochrome P450 3A4,22.4 µM (inconclusive)
same,AC50,Cytochrome P450 2C19; read-out: AC50,5.01 µM (inconclusive)
Cc1ccccc1C(C(=O)NC1CCCC1)N(C(=O)Cc1cccs1)c1ccc2c(c1)OCCO2 (centres undefined),AC50,Cytochrome P450 2C9,0.891 µM (inconclusive)
COc1ccc2c3c([nH]c2c1)C1CC2C(CC(O)C(OC)C2C(=O)O)CN1CC3 (centres undefined),EC50,[3],> 300 µM (not active)
same,EC50,[5],> 300 µM (not active)
Cc1oc(-c2cccs2)[n+]([O-])c1C,AC50,Cytochrome P450 1A2,25.1 µM (inconclusive)
CCOc1ccc(/C=C2\C(=O)c3ccccc3OC2c2ccccc2)cc1 (centres undefined),AC50,Cytochrome P450 2C9,10 µM (inconclusive)
same,AC50,Cytochrome P450 1A2,12.6 µM (inconclusive)
Cc1cc2oc(=O)c(CC(=O)NCCCO)c(C)c2c2occ(C(C)(C)C)c12,EC50,[3],> 300 µM (not active)
same,EC50,[5],> 300 µM (not active)
COc1ccc(-n2c(=O)c(-c3ccc(Cl)cc3)nc3cncnc32)cc1,AC50,Cytochrome P450 1A2,5.01 µM (inconclusive)
CCCc1nnc(NC(=O)c2cccs2)s1,AC50,Cytochrome P450 2C9,12.6 µM (inconclusive)
same,AC50,Cytochrome P450 2C19; read-out: AC50,25.1 µM (inconclusive)
CN1CCN(C(=O)c2cnn(-c3ccccc3)c2NC(=O)c2ccccc2)CC1,EC50,[1],> 38 µM (not active)
same,EC50,[2],> 150 µM (inactive)
CN(C)N1C(N)=C(C#N)C(c2cccnc2)C2=C1CC(C)(C)CC2=O (centres undefined),AC50,Cytochrome P450 2C9,0.0224 µM (inconclusive)
O=C(NCc1ccccc1)C(c1ccncc1)N(C(=O)c1csnn1)C1CC1 (centres undefined),AC50,Cytochrome P450 2C9,1.78 µM (inconclusive)
CCCCOc1ccccc1N,AC50,Cytochrome P450 2C9,39.8 µM (inconclusive)
same,AC50,Cytochrome P450 1A2,39.8 µM (inconclusive)
Cc1ccc(N/N=C2\COC(C)(C)CC2=O)cc1,EC50,[1],> 38 µM (not active)
same,EC50,[2],> 160 µM (inactive)
